Reference: patent US8048862B2, “Macrocyclic inhibitors of hepatitis C virus replication” (priority 2008, dated 2011)

Assays:
[1] = system: hepatitis C virus (HCV RNA levels), chronic hepatitis C genotype 1; experiment: ITMN-191 monotherapy, 14 days, effect on HCV viral load in patients; assay type: in vivo; conditions: for median reduction in HCV RNA levels at end of treatment (EOT) (Day 14): sodium salt oral
Experimental: The study was designed to provide the plasma pharmacokinetics (PK) of multiple ascending daily oral doses of ITMN-191 monotherapy and to evaluate the viral kinetics (VK) of multiple ascending daily oral doses of ITMN-191 monotherapy in patients, as measured by changes from Baseline in hepatitis C virus ribonucleic acid (HCV RNA) levels. The ITMN-191 was administered in the form of its sodium salt.
In Part A and Part B, up to six cohorts (treatment arms) of 10 patients each were planned. In Part A, up to five cohorts of 10 treatment-naïve patients per cohort were planned to receive multiple ascending doses of study drug. Patients within each of the five cohorts were randomly assigned 8:2 to receive either ITMN-191 or placebo for 14 days. In Part B, one cohort of non-responder (NR) patients (Cohort 6) was planned to receive a single dose level of study drug for 14 days. Patients in Cohort 6 were randomly assigned 8:2 to receive either ITMN-191 (8 patients) or placebo (2 patients).
The treatment period consisted of 14 days of blinded study drug. In Part A, optional Standard of Care (SOC) consisting of PEG-IFN-α plus ribivarin (RBV) therapy was provided to treatment-naïve patients 24 hours after the last dose on Day 14. In Part B, NR patients were not permitted to start any additional HCV therapy before Day 44.
Efficacy was evaluated by log10 reductions in HCV RNA levels and reductions in ALT values using the Efficacy-Evaluable Population, defined as those patients who received at least 90% of prescribed doses of assigned blinded study drug. Three patients in the treatment-naive 200 mg q12h cohort received less than the assigned randomized dose and were excluded from all efficacy analyses. The HCV RNA levels were determined by Roche COBAS Taqman HCV/HPS test, v2.0. This is a reverse transcriptase PCR method.
In Parts A and B, rebound, plateau, and continuous decline of virologic response profiles were defined based on the HCV RNA level at end of treatment (EOT) relative to the nadir HCV RNA level. […] The frequency of rebound for treatment-naïve patients (Part A) was higher in the 100 mg […] treatment arm (4 patients) than in the higher dose treatment arms (2 to 3 patients). The frequency of rebound for NR patients (Part B) was the same (2 patients) as for the treatment-naïve patients in the 100 mg q8h treatment arm. However, there were no statistically significant differences in ITMN-191 AUC, Cmax, or Cτ between rebound, plateau, and continual decline groups. At EOT, every patient classified as experiencing virologic rebound carried NS3 variants in which arginine at amino acid position 155 was replaced, at least in part, by lysine.

[2] = system: hepatitis C virus (HCV RNA levels), chronic hepatitis C genotype 1; experiment: ITMN-191 combination therapy with SOC (PEG-IFN alfa-2a and ribavirin), 14 days, effect on HCV viral load in patients; assay type: in vivo; conditions: for HCV RNA (<43 IU/mL) (%): after 14 days of treatment; for median change in HCV RNA from baseline: 14 days of triple combination therapy
Description: This is a double-blind, placebo-controlled, multicenter study in treatment-naïve patients with chronic hepatitis C genotype 1 infection. All patients receive standard of care (SOC) treatment with PEG-IFN alfa-2a and weight-based ribavirin in accordance with the product labeling. In addition to this standard of care treatment, patients are randomized to receive either ITMN-191 or matching placebo, administered in the fed state, for 14 complete days, and a single dose on Day 15. PEG-IFN alfa-2a and ribavirin is provided from Day 0 and following the completion of study drug treatment on Day 15 through Day 44. No other HCV therapies are permitted prior to Day 44. All patients receive SOC and then are administered a pill containing either ITMN-191 or placebo. The ITMN-191 was administered in the form of its sodium salt.
Patients are admitted to a research facility and initiate PEG-IFN alfa-2a and ribavirin on Day O, Study drug (ITMN-191 or placebo) administration begins on Day 1 and continues to the morning of Day 15, and patients are discharged from the research facility on Day 16. Meals and activity levels are standardized across research facilities. Patients are contacted by telephone on Day 21 and return to the research facility for the Safety Follow-up Visit on Day 28 and the End of Study Visit on Day 44.
Over the course of the study, blood samples are obtained for clinical laboratory analysis and for PK (pharmokinetics) and VK (viral kinetics). In addition, blood samples to assess VR (viral rebound) are obtained. To monitor potential cardiac toxicity, cardiac troponin are assessed every day during the treatment period.
End of treatment (EOT) and nadir HCV RNA levels were used to define virologic rebound, continual decline, and plateau response patterns. NS3 protease domain was amplified and population sequenced by nested reverse transcription polymerase chain reaction (RT-PCR). Amplicons were cloned into a novel NS3 phenotyping vector and this plasmid used for clonal sequencing. The HCV RNA levels were determined by Roche COBAS Taqman HCV/HPS test, v2.0. This is a reverse transcriptase PCR method.

[3] = NR (nonresponder) patients, 300 mg q8h, 14 days
[4] = all ITMN-191 treated patients, Parts A and B, monotherapy 14 days
[5] = treatment-naïve patients, 200 mg q8h, 14 days
[6] = treatment-naïve patients, 200 mg q12h, 14 days
[7] = any combination therapy cohort, 14 days

SMILES: CC(C)(C)OC(=O)N[C@H]1CCCCC/C=C\[C@@H]2C[C@@]2(C(=O)NS(=O)(=O)C2CC2)NC(=O)[C@@H]2C[C@@H](OC(=O)N3Cc4cccc(F)c4C3)CN2C1=O [ITMN-191]
- median ALT decline from Baseline at EOT [1, 3]: −34.5 U/L
- median maximum reduction in HCV RNA levels [1, 3]: −2.93 log10 IU/mL
- median reduction in HCV RNA at EOT [1, 3]: −2.46 log10 IU/mL
- frequency of rebound ([1]; NR patients (Part B)): 2 patients
- patients experiencing continual decline in HCV RNA level [1, 4]: 14/40
- patients experiencing plateau [1, 4]: 12/40
- median maximum post-Baseline change in HCV RNA ([1]; single NR cohort (Part B), 300 mg q12h dose as printed in the conclusions): −2.93 log10 IU/mL
- frequency of rebound ([1]; treatment-naïve patients, 100 mg q2h treatment arm): 4 patients
- frequency of rebound ([1]; treatment-naïve patients, 100 mg q8h treatment arm): 2 patients
- median EOT reduction of ALT [1, 5]: −37.5 U/L
- median maximum reduction in HCV RNA levels [1, 5]: −3.90 log10 IU/mL
- median reduction in HCV RNA levels at end of treatment (EOT) (Day 14) [1, 5]: −3.76 log10 IU/mL
- median maximum reduction in HCV RNA levels [1, 6]: −3.17 log10 IU/mL
- median reduction in HCV RNA levels at end of treatment (EOT) (Day 14) [1, 6]: −3.12 log10 IU/mL
- HCV RNA (<43 IU/mL) (%) ([2]; 100 mg q8h (300 mg) and SOC): 75%
- Median Change Log10 (IU/mL) HCV RNA at EOT ([2]; 100 mg q8h (300 mg) in combination with SOC, 14 days): −5.5 Log10 (IU/mL)
- HCV RNA (<43 IU/mL) (%) ([2]; 200 mg q8h (600 mg) and SOC): 88%
- Median Change Log10 (IU/mL) HCV RNA at EOT ([2]; 200 mg q8h (600 mg) in combination with SOC, 14 days): −5.7 Log10 (IU/mL)
- Median Change Log10 (IU/mL) HCV RNA at EOT ([2]; 300 mg q8h (900 mg) in combination with SOC, 14 days): −5.6 Log10 (IU/mL)
- Median Change Log10 (IU/mL) HCV RNA at EOT ([2]; 400 mg q12h (800 mg) in combination with SOC, 14 days): −4.7 Log10 (IU/mL)
- Median Change Log10 (IU/mL) HCV RNA at EOT ([2]; 600 mg q12h (1200 mg) in combination with SOC, 14 days): −5.4 Log10 (IU/mL)
- Median Change Log10 (IU/mL) HCV RNA at EOT ([2]; 900 mg q12h (1800 mg) in combination with SOC, 14 days): −5.5 Log10 (IU/mL)
- patients with HCV RNA below the limit of quantification (<25 IU/mL) ([2]; all doses and intervals (32 of 45 patients), combination with SOC, 14 days): 71%
- patients with HCV RNA levels below 9.3 IU/mL [2, 7]: at least 13%
- patients with HCV RNA levels below 25 IU/mL [2, 7]: at least 57%
- median change in HCV RNA from baseline ([2]; best performing q8h cohort): −5.7 log
- median change in HCV RNA from baseline ([2]; best performing q12h cohort): −5.5 log
- median change in HCV RNA from baseline ([2]; five of the six cohorts): exceeded 5 logs
